{"source": "ChEMBL document CHEMBL1201862", "about": "“PubChem BioAssay data set” (2004)", "assay_in_all_cases": "NCI-60 cell line screen, 48 h", "key": {"[1]": {"tested_on": "CCRF-CEM"}, "[2]": {"tested_on": "KM12"}, "[3]": {"tested_on": "SF-295"}, "[4]": {"tested_on": "SR"}, "[5]": {"tested_on": "SK-OV-3"}, "[6]": {"tested_on": "EKVX"}, "[7]": {"tested_on": "786-0"}, "[8]": {"tested_on": "U-251"}, "[9]": {"tested_on": "A549"}, "[10]": {"tested_on": "SNB-19"}, "[11]": {"tested_on": "UO-31"}, "[12]": {"tested_on": "OVCAR-3"}, "[13]": {"tested_on": "T47D"}, "[14]": {"tested_on": "SF-539"}, "[15]": {"tested_on": "MOLT-4"}, "[16]": {"tested_on": "MDA-MB-231"}, "[17]": {"tested_on": "HOP-92"}, "[18]": {"tested_on": "DU-145"}, "[19]": {"tested_on": "OVCAR-8"}, "[20]": {"tested_on": "HOP-62"}, "[21]": {"tested_on": "SN12C"}, "[22]": {"tested_on": "MDA-MB-435"}, "[23]": {"tested_on": "SF-268"}, "[24]": {"tested_on": "TK-10"}, "[25]": {"tested_on": "LOX IMVI"}, "[26]": {"tested_on": "SK-MEL-5"}, "[27]": {"tested_on": "SNB-75"}, "[28]": {"tested_on": "Hs-578T"}, "[29]": {"tested_on": "HCT-116"}, "[30]": {"tested_on": "A498"}, "[31]": {"tested_on": "MDA-N"}, "[32]": {"tested_on": "UACC-257"}, "[33]": {"tested_on": "MCF7"}, "[34]": {"tested_on": "HCC 2998"}, "[35]": {"tested_on": "HT-29"}, "[36]": {"tested_on": "NCI-H460"}, "[37]": {"tested_on": "Malme-3M"}, "[38]": {"tested_on": "CAKI-1"}, "[39]": {"tested_on": "COLO 205"}, "[40]": {"tested_on": "OVCAR-5"}, "[41]": {"tested_on": "RPMI-8226"}, "[42]": {"tested_on": "PC-3"}, "[43]": {"tested_on": "M14"}, "[44]": {"tested_on": "IGROV-1"}, "[45]": {"tested_on": "HL-60"}, "[46]": {"tested_on": "SK-MEL-28"}, "[47]": {"tested_on": "NCI/ADR-RES"}, "[48]": {"tested_on": "ACHN"}, "[49]": {"tested_on": "SW-620"}, "[50]": {"tested_on": "BT-549"}, "[51]": {"tested_on": "HCT-15"}, "[52]": {"tested_on": "NCI-H23"}, "[53]": {"tested_on": "SK-MEL-2"}, "[54]": {"tested_on": "K562"}, "[55]": {"tested_on": "NCI-H522"}, "[56]": {"tested_on": "OVCAR-4"}, "[57]": {"tested_on": "UACC-62"}, "[58]": {"tested_on": "NCI-H226"}}, "note": "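The compound was tested at five concentrations on cells cultured in 96-well plates, with a 48-hour exposure period. The concentration for 50% growth inhibition is given as GI50.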 Activity calls are given as the source filed them. No stated cut-off is given here; in the data, active = GI50 up to about 1.1 µM and inactive = higher."}
{"smiles": "NP1(Oc2ccc(F)cc2)=NP(N)(Oc2ccc(F)cc2)=NP(Oc2ccc(F)cc2)(Oc2ccc(F)cc2)=N1", "note": "(centres undefined)", "values": [{"measurement": "GI50", "setting": "[1]", "result": "6.21 µM (inactive)"}, {"measurement": "GI50", "setting": "[2]", "result": "4.19 µM (inactive)"}, {"measurement": "GI50", "setting": "[3]", "result": "4.4 µM (inactive)"}, {"measurement": "GI50", "setting": "[4]", "result": "4.56 µM (inactive)"}, {"measurement": "GI50", "setting": "[5]", "result": "14.2 µM (inactive)"}, {"measurement": "GI50", "setting": "[6]", "result": "6.82 µM (inactive)"}, {"measurement": "GI50", "setting": "[7]", "result": "11 µM (inactive)"}, {"measurement": "GI50", "setting": "[8]", "result": "4.78 µM (inactive)"}, {"measurement": "GI50", "setting": "[9]", "result": "3.99 µM (inactive)"}, {"measurement": "GI50", "setting": "[10]", "result": "10.9 µM (inactive)"}, {"measurement": "GI50", "setting": "[11]", "result": "4.06 µM (inactive)"}, {"measurement": "GI50", "setting": "[12]", "result": "4.68 µM (inactive)"}, {"measurement": "GI50", "setting": "[13]", "result": "2.4 µM (inactive)"}, {"measurement": "GI50", "setting": "[14]", "result": "14.5 µM (inactive)"}, {"measurement": "GI50", "setting": "[15]", "result": "3.37 µM (inactive)"}, {"measurement": "GI50", "setting": "[16]", "result": "11.4 µM (inactive)"}, {"measurement": "GI50", "setting": "[17]", "result": "3.78 µM (inactive)"}, {"measurement": "GI50", "setting": "[18]", "result": "7.52 µM (inactive)"}, {"measurement": "GI50", "setting": "[19]", "result": "3.5 µM (inactive)"}, {"measurement": "GI50", "setting": "[20]", "result": "9.68 µM (inactive)"}, {"measurement": "GI50", "setting": "[21]", "result": "6.18 µM (inactive)"}, {"measurement": "GI50", "setting": "[22]", "result": "7.01 µM (inactive)"}, {"measurement": "GI50", "setting": "[23]", "result": "13.8 µM (inactive)"}, {"measurement": "GI50", "setting": "[24]", "result": "2.77 µM (inactive)"}, {"measurement": "GI50", "setting": "[25]", "result": "6.84 µM (inactive)"}, {"measurement": "GI50", "setting": "[26]", "result": "4.91 µM (inactive)"}, {"measurement": "GI50", "setting": "[27]", "result": "3.67 µM (inactive)"}, {"measurement": "GI50", "setting": "[28]", "result": "5.64 µM (inactive)"}, {"measurement": "GI50", "setting": "[29]", "result": "4.58 µM (inactive)"}, {"measurement": "GI50", "setting": "[30]", "result": "< 0.01 µM (active)"}, {"measurement": "GI50", "setting": "[31]", "result": "6.47 µM (inactive)"}, {"measurement": "GI50", "setting": "[32]", "result": "12.3 µM (inactive)"}, {"measurement": "GI50", "setting": "[33]", "result": "2.94 µM (inactive)"}, {"measurement": "GI50", "setting": "[34]", "result": "3.19 µM (inactive)"}, {"measurement": "GI50", "setting": "[35]", "result": "5.43 µM (inactive)"}, {"measurement": "GI50", "setting": "[36]", "result": "3.7 µM (inactive)"}, {"measurement": "GI50", "setting": "[37]", "result": "5.27 µM (inactive)"}, {"measurement": "GI50", "setting": "[38]", "result": "10.2 µM (inactive)"}, {"measurement": "GI50", "setting": "[39]", "result": "6.64 µM (inactive)"}, {"measurement": "GI50", "setting": "[40]", "result": "11.5 µM (inactive)"}, {"measurement": "GI50", "setting": "[41]", "result": "4.59 µM (inactive)"}, {"measurement": "GI50", "setting": "[42]", "result": "4.85 µM (inactive)"}, {"measurement": "GI50", "setting": "[43]", "result": "6.9 µM (inactive)"}, {"measurement": "GI50", "setting": "[44]", "result": "2.54 µM (inactive)"}, {"measurement": "GI50", "setting": "[45]", "result": "5.09 µM (inactive)"}, {"measurement": "GI50", "setting": "[46]", "result": "12.4 µM (inactive)"}, {"measurement": "GI50", "setting": "[47]", "result": "6.17 µM (inactive)"}, {"measurement": "GI50", "setting": "[48]", "result": "3.32 µM (inactive)"}, {"measurement": "GI50", "setting": "[49]", "result": "12.4 µM (inactive)"}, {"measurement": "GI50", "setting": "[50]", "result": "2.23 µM (inactive)"}, {"measurement": "GI50", "setting": "[51]", "result": 3.81, "unit": "µM"}, {"measurement": "GI50", "setting": "[52]", "result": "11.2 µM (inactive)"}]}
{"smiles": "C=CCC(C(=O)Nc1cccc2nc[nH]c12)C(=O)OCC", "note": "(centres undefined)", "values": [{"measurement": "GI50", "setting": "[2]", "result": "> 100 µM (inactive)"}, {"measurement": "GI50", "setting": "[53]", "result": "> 100 µM (inactive)"}, {"measurement": "GI50", "setting": "[3]", "result": "> 100 µM (inactive)"}, {"measurement": "GI50", "setting": "[4]", "result": "> 100 µM (inactive)"}, {"measurement": "GI50", "setting": "[5]", "result": "> 100 µM (inactive)"}, {"measurement": "GI50", "setting": "[6]", "result": "> 100 µM (inactive)"}, {"measurement": "GI50", "setting": "[7]", "result": "> 100 µM (inactive)"}, {"measurement": "GI50", "setting": "[8]", "result": "> 100 µM (inactive)"}, {"measurement": "GI50", "setting": "[9]", "result": "> 100 µM (inactive)"}, {"measurement": "GI50", "setting": "[10]", "result": "> 100 µM (inactive)"}, {"measurement": "GI50", "setting": "[11]", "result": "> 100 µM (inactive)"}, {"measurement": "GI50", "setting": "[12]", "result": "> 100 µM (inactive)"}, {"measurement": "GI50", "setting": "[13]", "result": "> 100 µM (inactive)"}, {"measurement": "GI50", "setting": "[14]", "result": "> 100 µM (inactive)"}, {"measurement": "GI50", "setting": "[15]", "result": "> 100 µM (inactive)"}, {"measurement": "GI50", "setting": "[16]", "result": "> 100 µM (inactive)"}, {"measurement": "GI50", "setting": "[17]", "result": "> 100 µM (inactive)"}, {"measurement": "GI50", "setting": "[18]", "result": "> 100 µM (inactive)"}, {"measurement": "GI50", "setting": "[19]", "result": "> 100 µM (inactive)"}, {"measurement": "GI50", "setting": "[20]", "result": "> 100 µM (inactive)"}, {"measurement": "GI50", "setting": "[21]", "result": "> 100 µM (inactive)"}, {"measurement": "GI50", "setting": "[22]", "result": "> 100 µM (inactive)"}, {"measurement": "GI50", "setting": "[23]", "result": "> 100 µM (inactive)"}, {"measurement": "GI50", "setting": "[24]", "result": "> 100 µM (inactive)"}, {"measurement": "GI50", "setting": "[25]", "result": "> 100 µM (inactive)"}, {"measurement": "GI50", "setting": "[27]", "result": "> 100 µM (inactive)"}, {"measurement": "GI50", "setting": "[28]", "result": "> 100 µM (inactive)"}, {"measurement": "GI50", "setting": "[54]", "result": "> 100 µM (inactive)"}, {"measurement": "GI50", "setting": "[29]", "result": "> 100 µM (inactive)"}, {"measurement": "GI50", "setting": "[30]", "result": "> 100 µM (inactive)"}, {"measurement": "GI50", "setting": "[31]", "result": "> 100 µM (inactive)"}, {"measurement": "GI50", "setting": "[32]", "result": "> 100 µM (inactive)"}, {"measurement": "GI50", "setting": "[33]", "result": "> 100 µM (inactive)"}, {"measurement": "GI50", "setting": "[34]", "result": "> 100 µM (inactive)"}, {"measurement": "GI50", "setting": "[55]", "result": "> 100 µM (inactive)"}, {"measurement": "GI50", "setting": "[35]", "result": "> 100 µM (inactive)"}, {"measurement": "GI50", "setting": "[36]", "result": "> 100 µM (inactive)"}, {"measurement": "GI50", "setting": "[56]", "result": "43.1 µM (inactive)"}, {"measurement": "GI50", "setting": "[57]", "result": "85.3 µM (inactive)"}, {"measurement": "GI50", "setting": "[40]", "result": "> 100 µM (inactive)"}, {"measurement": "GI50", "setting": "[41]", "result": "> 100 µM (inactive)"}, {"measurement": "GI50", "setting": "[42]", "result": "> 100 µM (inactive)"}, {"measurement": "GI50", "setting": "[43]", "result": "> 100 µM (inactive)"}, {"measurement": "GI50", "setting": "[44]", "result": "> 100 µM (inactive)"}, {"measurement": "GI50", "setting": "[45]", "result": "33.2 µM (inactive)"}, {"measurement": "GI50", "setting": "[46]", "result": "> 100 µM (inactive)"}, {"measurement": "GI50", "setting": "[58]", "result": "> 100 µM (inactive)"}, {"measurement": "GI50", "setting": "[47]", "result": "83.6 µM (inactive)"}, {"measurement": "GI50", "setting": "[48]", "result": "> 100 µM (inactive)"}, {"measurement": "GI50", "setting": "[49]", "result": "> 100 µM (inactive)"}, {"measurement": "GI50", "setting": "[50]", "result": "> 100 µM (inactive)"}, {"measurement": "GI50", "setting": "[51]", "result": "> 100", "unit": "µM"}]}
